ChEMBL document CHEMBL3885861, “Open TG-GATES”

Organism: Rattus norvegicus
Experiment: Open TG-GATES - Regimen: Single
Format: toxicity, organism-based, Sprague-Dawley
Design: regimen Single, gender Male, age 6 weeks
Conditions: in vivo, po, 2000 mg/kg, route gavage, dose level High; for APTT / Bas / Eos / Fbg / Hb / Ht / Lym / MCH / MCHC / MCV / Mono / Neu / PT / Plat / RBC / Ret / WBC: tissue Blood; for KIDNEY_L / KIDNEY_R / KIDNEY_TOTAL: tissue Kidney; for LIVER: tissue Liver; for A/G / ALP / ALT / AST / BUN / CRE / Ca / Cl / DBIL / GLC / IP / K / LDH / Na / PL / RALB / TBIL / TC / TG / TP / gamma-GTP: tissue Plasma

## COc1ccc(O)c(C(C)(C)C)c1.COc1ccc(O)cc1C(C)(C)C [BUTYLATED HYDROXYANISOLE]
3 h
  TERMINAL_BW: 203.7 g
  APTT: 15.1 s
  Bas: 0.1%
  Eos: 0.6%
  Fbg: 266 mg/dL
  Hb: 13.4 g/dL
  Ht: 39%
  Lym: 75.5%
  MCH: 21.4 pg
  MCHC: 34.3%
  MCV: 62.3 fL
  Mono: 1.9%
  Neu: 20.8%
  PT: 12.1 s
  Plat: 140.3 x10_4/uL
  RBC: 626.2 x10_4/ul
  Ret: 8.2%
  WBC: 81.2 x10_2/uL
  KIDNEY_L: 0.9 g
  KIDNEY_R: 0.8 g
  KIDNEY_TOTAL: 1.7 g
  LIVER: 7.8 g
  A/G: 0.9
  ALP: 1489.2 IU/L
  ALT: 51.4 IU/L
  AST: 79 IU/L
  BUN: 9.4 mg/dL
  CRE: 0.2 mg/dL
  Ca: 10.9 mg/dL
  Cl: 105.8 meq/L
  DBIL: 0.028 mg/dL
  GLC: 174.6 mg/dL
  IP: 10 mg/dL
  K: 3.6 meq/L
  LDH: 63.6 IU/L
  Na: 142 meq/L
  PL: 119 mg/dL
  RALB: 2.7 g/dL
  TBIL: 0.096 mg/dL
  TC: 70.4 mg/dL
  TG: 55.4 mg/dL
  TP: 5.7 g/dL
  gamma-GTP: 1 IU/L
6 h
  TERMINAL_BW: 202.1 g
  APTT: 16.4 s
  Bas: 0.2%
  Eos: 0.6%
  Fbg: 267.6 mg/dL
  Hb: 13.5 g/dL
  Ht: 39.6%
  Lym: 68.4%
  MCH: 20.9 pg
  MCHC: 34.2%
  MCV: 61.1 fL
  Mono: 2.8%
  Neu: 27%
  PT: 12.6 s
  Plat: 154.9 x10_4/uL
  RBC: 646.8 x10_4/ul
  Ret: 7.5%
  WBC: 78.3 x10_2/uL
  KIDNEY_L: 0.9 g
  KIDNEY_R: 0.9 g
  KIDNEY_TOTAL: 1.7 g
  LIVER: 7.7 g
  A/G: 0.8
  ALP: 1463.6 IU/L
  ALT: 49 IU/L
  AST: 73.8 IU/L
  BUN: 11.2 mg/dL
  CRE: 0.2 mg/dL
  Ca: 10.8 mg/dL
  Cl: 106.8 meq/L
  DBIL: 0.024 mg/dL
  GLC: 172.4 mg/dL
  IP: 10.4 mg/dL
  K: 4 meq/L
  LDH: 62.4 IU/L
  Na: 141.8 meq/L
  PL: 124.2 mg/dL
  RALB: 2.6 g/dL
  TBIL: 0.084 mg/dL
  TC: 75.8 mg/dL
  TG: 40.8 mg/dL
  TP: 5.8 g/dL
  gamma-GTP: 1.2 IU/L
9 h
  TERMINAL_BW: 199.8 g
  APTT: 17.5 s
  Bas: 0.2%
  Eos: 0.7%
  Fbg: 289 mg/dL
  Hb: 13.9 g/dL
  Ht: 40.9%
  Lym: 68.4%
  MCH: 20.7 pg
  MCHC: 34%
  MCV: 60.9 fL
  Mono: 1.6%
  Neu: 28.5%
  PT: 13 s
  Plat: 141.5 x10_4/uL
  RBC: 671.8 x10_4/ul
  Ret: 7%
  WBC: 76.1 x10_2/uL
  KIDNEY_L: 0.9 g
  KIDNEY_R: 0.9 g
  KIDNEY_TOTAL: 1.8 g
  LIVER: 7.2 g
  A/G: 0.8
  ALP: 1379.8 IU/L
  ALT: 40.8 IU/L
  AST: 69 IU/L
  BUN: 9.2 mg/dL
  CRE: 0.2 mg/dL
  Ca: 10.9 mg/dL
  Cl: 108.2 meq/L
  DBIL: 0.03 mg/dL
  GLC: 167.6 mg/dL
  IP: 10.2 mg/dL
  K: 4 meq/L
  LDH: 58.6 IU/L
  Na: 143.6 meq/L
  PL: 141.4 mg/dL
  RALB: 2.7 g/dL
  TBIL: 0.096 mg/dL
  TC: 87.6 mg/dL
  TG: 42.2 mg/dL
  TP: 5.9 g/dL
  gamma-GTP: 1 IU/L
24 h
  TERMINAL_BW: 207.8 g
  APTT: 16.8 s
  Bas: 0.2%
  Eos: 0.8%
  Fbg: 289.8 mg/dL
  Hb: 13.7 g/dL
  Ht: 39.6%
  Lym: 78.6%
  MCH: 21.2 pg
  MCHC: 34.6%
  MCV: 61.3 fL
  Mono: 2.2%
  Neu: 17.4%
  PT: 12.3 s
  Plat: 155.8 x10_4/uL
  RBC: 646.8 x10_4/ul
  Ret: 5.8%
  WBC: 68 x10_2/uL
  KIDNEY_L: 0.9 g
  KIDNEY_R: 0.9 g
  KIDNEY_TOTAL: 1.8 g
  LIVER: 9.3 g
  A/G: 0.8
  ALP: 1603 IU/L
  ALT: 53 IU/L
  AST: 73.6 IU/L
  BUN: 12.6 mg/dL
  CRE: 0.2 mg/dL
  Ca: 11.5 mg/dL
  Cl: 108.6 meq/L
  DBIL: 0.044 mg/dL
  GLC: 155.2 mg/dL
  IP: 8.5 mg/dL
  K: 4.2 meq/L
  LDH: 82.4 IU/L
  Na: 142.8 meq/L
  PL: 152.2 mg/dL
  RALB: 2.7 g/dL
  TBIL: 0.088 mg/dL
  TC: 93.4 mg/dL
  TG: 217 mg/dL
  TP: 5.9 g/dL
  gamma-GTP: 1 IU/L
